The term inhibition denotes the change of the read-out against control, counted positive when it falls. Usually pIC50 stands for the negative decadic logarithm of the IC50, by convention in mol/L.

pIC50: −log10 of the molar value. Active and inactive are the calls of the source. No cut-off for these calls is given here.

Among the data in ChEMBL document CHEMBL4665686, “Dehydrohispanolone Derivatives Attenuate the Inflammatory Response through the Modulation of Inflammasome Activation” (J Nat Prod, 2020) are Activity, inhibition and IC50 values, retold here.

One series relates to J774.A1. Nature of the series: Cytotoxicity against mouse J774.A1 cells assessed as cell viability at 10 to 20 uM after 24 hrs by MTT assay. Type of series: cell-based. Particulars: j774.a1, 24 h, dose 10-20 µM. (In general: Tetrazolium dyes change colour on reduction, which living cells bring about.)
Series [1] has as its target NACHT, LRR and PYD domains-containing protein 3 (Mus musculus) (UniProt Q8R4B8). Briefly: Inhibition of NLRP3 in mouse J774A.1 cells assessed as inhibition of LPS-induced NO production at 20 uM measured after 24 hrs by Griess reagent. Type of series: cell-based. The note with it: J774.A1.
The target is the same in series [2]. Briefly: Inhibition of NLRP3 in mouse J774A.1 cells assessed as inhibition of LPS and nigerecin-induced IL-1beta production at 20 uM pre-stimulated with LPS for 5 hrs followed by compound treatment for 30 mins and then nigericin addition for 45 mins by ELISA. Type of series: cell-based. The note with it: J774.A1, time 75.0 min.
Series [3] has the same target. Briefly: Inhibition of NLRP3 in mouse J774A.1 cells assessed as inhibition of LPS and nigericin-induced cleaved IL-1beta production at 20 uM pre-stimulated with LPS for 5 hrs before compound addition with ATP for 45 mins by Western blot analysis. Particulars: J774.A1. In kind it is cell-based. For orientation: Immunoblotting shows a protein as a band on a membrane.

The target is the same in series [4]. Briefly: Inhibition of NLRP3 in mouse J774A.1 cells assessed as inhibition of LPS and ATP-induced IL-1beta production at 20 uM pre-stimulated with LPS for 5 hrs followed by compound treatment for 30 mins and then ATP addition for 45 mins by ELISA. In kind it is cell-based. Particulars: J774.A1, time 75.0 min. In general terms: ELISA stands for enzyme-linked immunosorbent assay.

The target is the same in series [5]. Nature of the series: Inhibition of NLRP3 in mouse J774A.1 cells assessed as inhibition of LPS and MSU-induced IL-1beta production at 20 uM pre-stimulated with LPS for 5 hrs followed by compound treatment for 30 mins and then MSU addition for 24 hrs by ELISA. In kind it is cell-based. Particulars: J774.A1, time 24.5 hrs.
Series [6] concerns the target NACHT, LRR and PYD domains-containing protein 3 (Mus musculus, UniProt Q8R4B8). Briefly: Inhibition of NLRP3 in mouse J774A.1 cells assessed as inhibition of LPS and nigerecin-induced IL-1beta production pre-stimulated with LPS for 5 hrs followed by compound treatment for 30 mins and then nigericin addition for 45 mins by ELISA. In kind it is cell-based, J774.A1.
For series [7], the target named is NACHT, LRR and PYD domains-containing protein 3 (Mus musculus) (UniProt Q8R4B8). Particulars: J774.A1, dose 300.0 nM, time 45.0 min.
NACHT, LRR and PYD domains-containing protein 3 (Mus musculus), sequence (Q8R4B8 whole entry, the tested form may be a part): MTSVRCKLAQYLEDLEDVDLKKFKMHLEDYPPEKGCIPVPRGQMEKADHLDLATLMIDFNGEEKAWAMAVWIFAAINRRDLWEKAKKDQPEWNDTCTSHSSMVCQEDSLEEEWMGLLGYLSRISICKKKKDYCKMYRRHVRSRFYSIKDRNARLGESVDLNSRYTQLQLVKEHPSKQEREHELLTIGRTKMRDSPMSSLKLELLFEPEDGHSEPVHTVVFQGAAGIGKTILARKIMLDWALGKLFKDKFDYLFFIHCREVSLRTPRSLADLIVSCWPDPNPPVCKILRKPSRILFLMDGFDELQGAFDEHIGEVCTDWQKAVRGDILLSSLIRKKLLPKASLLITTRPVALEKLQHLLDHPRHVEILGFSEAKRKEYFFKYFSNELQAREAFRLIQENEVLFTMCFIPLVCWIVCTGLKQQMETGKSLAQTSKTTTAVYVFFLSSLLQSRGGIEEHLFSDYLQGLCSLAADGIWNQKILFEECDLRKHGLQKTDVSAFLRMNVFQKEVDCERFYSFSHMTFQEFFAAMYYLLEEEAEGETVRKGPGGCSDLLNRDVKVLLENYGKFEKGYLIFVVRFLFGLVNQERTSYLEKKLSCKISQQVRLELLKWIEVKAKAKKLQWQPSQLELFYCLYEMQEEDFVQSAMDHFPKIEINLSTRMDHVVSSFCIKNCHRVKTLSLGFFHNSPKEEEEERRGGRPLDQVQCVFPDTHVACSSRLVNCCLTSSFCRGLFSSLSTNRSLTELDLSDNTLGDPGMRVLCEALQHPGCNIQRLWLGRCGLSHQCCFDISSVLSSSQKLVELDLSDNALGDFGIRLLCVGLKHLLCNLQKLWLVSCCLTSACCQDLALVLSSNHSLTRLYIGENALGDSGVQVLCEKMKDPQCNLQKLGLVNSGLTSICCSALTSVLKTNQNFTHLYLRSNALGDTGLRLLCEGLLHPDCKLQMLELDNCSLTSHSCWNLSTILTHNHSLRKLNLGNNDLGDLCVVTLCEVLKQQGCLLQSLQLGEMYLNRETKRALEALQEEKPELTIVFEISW

NACHT, LRR and PYD domains-containing protein 3, sequence (Q8R4B8 whole entry, the tested form may be a part): as above

Regarding `CC1=C(CCc2ccoc2)[C@@]2(C)CCCC(C)(C)[C@@H]2C/C1=N/OC(=O)N(C)C`, the Activity result in the series with J774.A1 is “Non-Toxic”. On to `CC1=C(CCc2ccoc2)[C@@]2(C)CCCC(C)(C)[C@@H]2C/C1=N/OC(=O)c1ccc(Br)cc1`, for which the inhibition in series [1] was over 50%. Moreover, the Activity result in the series on J774.A1 is listed as “Non-Toxic”.

On to `CC1=C(CCc2ccoc2)[C@@]2(C)CCCC(C)(C)[C@@H]2C/C1=N/OC(=O)c1cccc(C(=O)O/N=C2/C[C@H]3C(C)(C)CCC[C@]3(C)C(CCc3ccoc3)=C2C)n1`, for which the Activity result with J774.A1 is “Non-Toxic”. Take `CCCCCCCCCCCC(=O)O/N=C1/C[C@H]2C(C)(C)CCC[C@]2(C)C(CCc2ccoc2)=C1C`: the inhibition result in series [2], in series [3], in series [4] and in series [5] was “Active” throughout. Besides, the Activity result with J774.A1 is “Non-Toxic”. Also, the pIC50 in series [6] is 4.73. Regarding `CC1=C(CCc2ccoc2)[C@@]2(C)CCCC(C)(C)[C@@H]2C/C1=N/OC(=O)c1ccc(C(=O)O/N=C2/C[C@H]3C(C)(C)CCC[C@]3(C)C(CCc3ccoc3)=C2C)cc1`, the inhibition result in series [2], in series [3], in series [4] and in series [5] was “Active” throughout. For the same molecule, in the series on J774.A1, the Activity entry was “Non-Toxic”. Moreover, the negative-log IC50 (pIC50) in series [6] was 4.86. Turning to `CC(C)(O)c1coc(S(=O)(=O)NC(=O)Nc2c3c(cc4c2CCC4)CCC3)c1`, in series [7], the inhibition result was “Active”. On to `CC1=C(CCc2ccoc2)[C@@]2(C)CCCC(C)(C)[C@@H]2CC1N` (some centres undefined), for which the Activity result in the series on J774.A1 is on record as “Toxic”.

With `CCC1=C(Cc2ccoc2)C(=O)[C@@]2(C)CCCC(C)(C)[C@@H]2C1`, the inhibition in series [1] is over 50%. The inhibition result in series [2] is “Active”. The Activity entry with J774.A1 is listed as “Non-Toxic”. Consider `CC1=C(CCc2ccoc2)[C@@]2(C)CCCC(C)(C)[C@@H]2CC1=O`, for which, in the series with J774.A1, the Activity result is on record as “Toxic”. The same measure, in the same setting: then `CO[C@H]1C[C@H]2C(C)(C)CCC[C@]2(C)C(CCc2ccoc2)=C1C`, with “Non-Toxic”; and `CC1=C(CCc2ccoc2)[C@@]2(C)CCCC(C)(C)[C@@H]2C/C1=N/OS(=O)(=O)c1ccc(C)cc1`, with “Non-Toxic”. On the same count and under the same terms, as for `CC1=C(CCc2ccoc2)[C@@]2(C)CCCC(C)(C)[C@@H]2C/C1=N/O`, the entry is “Non-Toxic”.

Regarding `CC1=C(CCC2CCOC2)[C@@]2(C)CCCC(C)(C)[C@@H]2CC1=O` (some centres undefined), in series [1], the inhibition was over 50%. Besides, the inhibition entry in series [2] was “Active”. In addition, the Activity entry in the series with J774.A1 is on record as “Non-Toxic”. In the case of `CC1=C(CCc2ccoc2)[C@@]2(C)CCCC(C)(C)[C@@H]2CC(=O)N1`, the Activity result in the series with J774.A1 is “Non-Toxic”. On the same count and under the same terms, then `CC(=O)O/N=C1/C[C@H]2C(C)(C)CCC[C@]2(C)C(CCc2ccoc2)=C1C`, with “Non-Toxic”; and `CC1=C(CCc2ccoc2)[C@@]2(C)CCCC(C)(C)[C@@H]2C/C1=N/OC(=O)c1ccc(C(=O)O)cc1`, with “Toxic”. The same measure, in the same setting: then `CC1=C(CCc2ccoc2)[C@@]2(C)CCCC(C)(C)[C@@H]2C/C1=N/OC(=O)CCCCC(=O)O/N=C1/C[C@H]2C(C)(C)CCC[C@]2(C)C(CCc2ccoc2)=C1C`, with “Non-Toxic”; and `CC1=C(CCc2ccoc2)[C@@]2(C)CCCC(C)(C)[C@@H]2C[C@@H]1O`, with “Toxic”. The same measure, in the same setting: then `CO/N=C1/C[C@H]2C(C)(C)CCC[C@]2(C)C(CCc2ccoc2)=C1C`, with “Non-Toxic”.
